This is an account of results in patent US20160331853A1, “COMPOSITIONS FOR RADIOTHERAPY AND USES THEREOF” (The Trustees of Columbia University in the City of New York, priority 2014, published 2016).

The subject of data set [1] is NCI-28H cells. Nature of the data set: Example 21: cytotoxicity (MTS) assay, NCI-28H cells treated with doxorubicin, cisplatin, paclitaxel, talc alone, talc bound to each drug. The class given is cell-based. To be noted: for AVERAGE reading: cells + DOX: NCI-28H, 72 hrs; for Average reading: cells + cisplatin: absorbance 490 nm; for Average reading: cells + cisplatin / % survival from untreated cells (cells + cisplatin): NCI-28H cells.

For data set [2], the system named is NCI-28H cells. The experiment in a line: Example 22: cytotoxicity (MTS) assay, NCI-28H cells treated with carboplatin, mitomycin, gemcitabine, talc alone, talc bound to each drug. To be noted: for Average absorbance reading: cells + drug, gemcitabine: 490 nm, Table 79; for Average absorbance reading: cells + drug, gemcitabine / % survival cells: cells + drug only / % survival from untreated cells: cells + drug, carboplatin / Average reading: cells + drug, carboplatin: NCI-28H cells; for % survival cells: cells + drug only: Table 80; for Average reading: cells + drug, carboplatin: absorbance 490 nm.

The test system of data set [3] is NCI-28H cells. The conditions noted are these: 72 hrs.
For data set [4] the following is noted: flow cytometry, after multiple PBS washes.
Data set [5] in a line: Example 9: binding of bleomycin to talc, fluorescent microscopy (DAPI filter). To be noted: 50 mg talc, 1 or 100 μg/mL bleomycin. As for the experimental part:
1. Reconstitute bleomycin by adding 100 μL of water to 1 mg of bleomycin. Get the concentration to 10 mg/mL and mix, keeping the drug at 4° C.
9. Incubate overnight at 4° C., constantly mixing it.
3. Wash tubes 3× with 1 mL of water.
4. After last wash, complete, remove the water and resuspend the pellet in Vectashield mounting medium for fluorescence.
6. Check slides under fluorescent microscope under DAPI filter.

A short description of data set [6]: Example 2: Avidin and Avidin-Rhodamine binding to talc after PBS and 0.2% EDTA washes, fluorescent microscope. The conditions noted are these: 100 mg talc; 3x PBS, 3x 0.2% EDTA washes. As for the experimental part: The resulting mixtures were then washed with PBS and then washed with 0.2% EDTA.
3. Mix 1 mL of 100 μM of Avidin with 500 μL of 30.3 μM of Avidin Rhodamine (keep lights off).
4. […] Mix well to bring the dry talc powder to evenly distributed reaction solution.
8. Place tubes on the rotator and incubate overnight at 4° C.
5. Continue to wash all “b” labeled tubes with 0.2% EDTA. Wash 3× in 0.5 mL EDTA.
7. View slides under fluorescent microscope.

Data set [7] is described as follows: Example 25: non-specific binding of Biotin-Rhodamine to talc after washing with buffers of different pH, fluorescent assay 496/520 nm. As for the experimental part:
Plan: incubate talc with Biotin Rhodamine. Make washings using different pH buffers: PBS, TBS (pH 8.0), Citrate buffer (pH 4.8). Run fluorescent assay. 1. […] Label tubes as #1, #2, #3, #4. 2. Add to each tube 500 μL 1×PBS. 3. […] 4. Mix well, incubate all tubes for 1 hr at 4° C., rotator. Protect from light. 5. […] (Centrifuge speed −3200 rpm for 3 min) 7. Add to all tubes 200 μL PBS, mix well. 8. […] 9. Run fluorescent assay using settings excitation/emission as 496 nm/520 nm.

Data set [8] can be described thus: Example 1: binding of Anti-Avidin FITC and Biotin Rhodamine to talc, fluorescence microscopy. To be noted: 30 mg talc; FITC and Rhodamine filters. An excerpt: This combinant nanoparticle was observed under microscopy for efficiency and efficacy. 1. […] 4. […] 5. […] 3. […] 4. […] 7. […] PBS+0.05% Tween20). 9. Analyze under microscope using FITC filter and Rhodamine filter.

“And” between values parts separate entries of the source, which are not always exact repeats. Equal values may be shown once. Where a name gives a salt, the structure may show the parent alone. Read-outs that look alike come from different tables or passages of the source.

Regarding `COc1cccc2c1C(=O)c1c(O)c3c(c(O)c1C2=O)C[C@@](O)(C(=O)CO)C[C@@H]3O[C@H]1C[C@H](N)[C@H](O)[C@H](C)O1` [DOX, Doxorubicin Hydrochloride], the “AVERAGE reading: cells + DOX” value in the data set on NCI-28H cells [1] (DOX 0.2 μM) came out at 0.89; in the data set with NCI-28H cells [1] (DOX 1 μM), 0.67; in the data set with NCI-28H cells [1] (DOX 5 μM), 0.63.

Turning to `Nc1ccn([C@@H]2O[C@H](CO)[C@@H](O)C2(F)F)c(=O)n1` [gemcitabine, Gemcitabine, reference compound], in the data set with NCI-28H cells [2], the “cytotoxicity to NCI-28H cells, conclusion” value is on record as “clear cytotoxic effect”. Moreover, the “Average absorbance reading: cells + drug, gemcitabine” value in the data set on NCI-28H cells [2] (Gemcitabine 0.0026 uM) came out at 2.034; in the data set with NCI-28H cells [2] (Gemcitabine 0.013 uM) it was 1.914; in the data set on NCI-28H cells [2] (Gemcitabine 0.064 uM), 1.43; in the data set on NCI-28H cells [2] (Gemcitabine 8 uM), 1.004; in the data set with NCI-28H cells [2] (Gemcitabine 40 uM), 1.0663; in the data set with NCI-28H cells [2] (Gemcitabine 200 uM) it was 0.9352. Besides, the “% survival cells: cells + drug only” value was 114.61% in the data set with NCI-28H cells [2] (Gemcitabine 0.0026 uM); 107.85% with NCI-28H cells [2] (Gemcitabine 0.013 uM); 80.60% in the data set on NCI-28H cells [2] (Gemcitabine 0.064 uM); 56.58% in the data set with NCI-28H cells [2] (Gemcitabine 8 uM); 60.09% with NCI-28H cells [2] (Gemcitabine 40 uM); 52.70% in the data set with NCI-28H cells [2] (Gemcitabine 200 uM).

As for `N.N.[Cl][Pt][Cl]` [cisplatin, Cisplatin], the “Average reading: cells + cisplatin” value in the data set on NCI-28H cells [1] (Cisplatin 0.0013 μM) came out at 1.37; in the data set with NCI-28H cells [1] (Cisplatin 0.0064 μM), 1.19; with NCI-28H cells [1] (Cisplatin 0.8 μM), 1.23; in the data set with NCI-28H cells [1] (Cisplatin 4 μM), 1.18; in the data set with NCI-28H cells [1] (Cisplatin 20 μM), 0.48; in the data set on NCI-28H cells [1] (Cisplatin 100 μM), 0.59. Further, the “% survival from untreated cells (cells + cisplatin)” value in the data set on NCI-28H cells [1] (cisplatin 0.0013 (μM per Table 63)) was found to be 91.07%; in the data set with NCI-28H cells [1] (cisplatin 0.0064 (μM per Table 63)), 79.21%; in the data set with NCI-28H cells [1] (cisplatin 0.032 (μM per Table 63)), 76.66%; with NCI-28H cells [1] (cisplatin 0.16 (μM per Table 63)) it was 79.74%; in the data set with NCI-28H cells [1] (cisplatin 0.8 (μM per Table 63)) it was 82.09%; in the data set with NCI-28H cells [1] (cisplatin 4 (μM per Table 63)), 78.41%. Besides, the entries for the “% survival from untreated cells (cells + cisplatin)” value in the data set with NCI-28H cells [1] (cisplatin 20 (μM per Table 63)) and with NCI-28H cells [1] (cisplatin 100 (μM per Table 63)) were 31.99% and 39.35%, respectively.

In the case of Bleomycin sulfate, the “% survival NCI-28H cells after treatment with BLEOMYCIN” value in the data set with NCI-28H cells [3] (Bleomycin 0.004 ug/ml) is recorded as 92.41%; with NCI-28H cells [3] (Bleomycin 0.015 ug/ml), 88.25%; in the data set on NCI-28H cells [3] (Bleomycin 0.06 ug/ml), 93.38%; in the data set on NCI-28H cells [3] (Bleomycin 0.24 ug/ml), 91.86%; with NCI-28H cells [3] (Bleomycin 0.97 ug/ml) it was 86.19%; with NCI-28H cells [3] (Bleomycin 3.9 ug/ml) it was 71.05%. The “% survival NCI-28H cells after treatment with BLEOMYCIN” value worked out at 74.60% in the data set with NCI-28H cells [3] (Bleomycin 15.6 ug/ml), 68.76% with NCI-28H cells [3] (Bleomycin 62.5 ug/ml), 47.13% in the data set on NCI-28H cells [3] (Bleomycin 250 ug/ml) and 24.92% in the data set with NCI-28H cells [3] (Bleomycin 1000 ug/ml). The “binding of bleomycin to talc” value in data set [4] was “binds to talc and remains on surface of talc even following multiple PBS washes”. Moreover, the “fluorescent imaging of talc incubated with bleomycin” value in data set [5] was “no difference in fluorescent imaging between negative control and talc incubated with bleomycin”.

As for “Avidin-Rhodamine: Rhodamine Conjugated Avidin from Rockland [reference compound]”, the “binding to talc after washing” value in data set [6] is recorded as “remained bound to talc despite multiple washes”.

Consider `N.N.O=C([O-])C1(C(=O)[O-])CCC1.[Pt+2]` [carboplatin], for which the “% survival from untreated cells: cells + drug, carboplatin” value in the data set with NCI-28H cells [2] (carboplatin 0.006 μM) is 90.84% and 94.28%; in the data set with NCI-28H cells [2] (carboplatin 0.8 μM), 85.98% and 87.53%; in the data set on NCI-28H cells [2] (carboplatin 4 μM) it was 96.93% and 93.62%; in the data set on NCI-28H cells [2] (carboplatin 20 μM) it was 104.81% and 99.20%; with NCI-28H cells [2] (carboplatin 100 μM), 83.82% and 79.53%; in the data set with NCI-28H cells [2] (carboplatin 500 μM), 37.38% and 35.14%. The “Average reading: cells + drug, carboplatin” value stood at 1.504 with NCI-28H cells [2] (carboplatin 0.006 μM); 1.4238 in the data set on NCI-28H cells [2] (carboplatin 0.8 μM); 1.605 with NCI-28H cells [2] (carboplatin 4 μM); 1.7355 with NCI-28H cells [2] (carboplatin 20 μM); 1.388 in the data set on NCI-28H cells [2] (carboplatin 100 μM); 0.6189 in the data set on NCI-28H cells [2] (carboplatin 500 μM).

Consider Biotin Rhodamine 110, for which the “effect of pH of washing buffers on binding to talc” value in data set [7] (pH 4.8-8.0) is listed as “pH does not affect the binding”. The “Average fluorescent signal (Rhodamine 110)” value in data set [7] (talc/Biotin washed with Citrate buffer, pH 4.8) is on record as 14027.61; in data set [7] (talc/Biotin washed with PBS) it was 13760.41; in data set [7] (talc/Biotin washed with TBS, pH 8.0), 12868.68. The “binding to talc, microscopy” value in data set [8] is on record as “binding to talc”.
